Results from PMC9706020, “Isovitexin Is a Direct Inhibitor of Staphylococcus aureus Coagulase” (Journal of Microbiology and Biotechnology, 2021).

How the values were obtained:
[1] = biological target: T1, S. aureus coagulase (Coa); 6×His-Coa; WT-Coa (Staphylococcus aureus, UniProt Q2G1D3); assay: plate coagulation assay (agarose, fibrinogen, rabbit plasma); format: biochemical; details: 2.5 mg/ml Coa; 37 °C overnight; rabbit plasma as prothrombin source
T1 construct: gene SAOUHSC_00192; 6×His-tagged Coa from pET15b-Coa, expressed in E. coli BL21(DE3), Ni-NTA purified

[2] = biological target: T1, S. aureus coagulase (Coa); 6×His-Coa; WT-Coa; assay: intrinsic fluorescence quenching; format: binding
[3] = biological target: T2, S. aureus coagulase (Coa); 6×His-Coa; WT-Coa (Staphylococcus aureus, UniProt Q2G1D3, V191A); assay: biochemical
T2 construct: gene SAOUHSC_00192
Excerpt: (§1) intrinsic fluorescence quenching on S. aureus coagulase (Coa); 6×His-Coa; WT-Coa

[4] = biological target: T3, S. aureus coagulase (Coa); 6×His-Coa; WT-Coa (Staphylococcus aureus, UniProt Q2G1D3, N267A); assay: biochemical
T3 construct: gene SAOUHSC_00192
Excerpt: as §1

[5] = biological target: T4, S. aureus coagulase (Coa); 6×His-Coa; WT-Coa (Staphylococcus aureus, UniProt Q2G1D3, Y188A); assay: biochemical
T4 construct: gene SAOUHSC_00192
Excerpt: as §1

[6] = biological target: T5, S. aureus coagulase (Coa); 6×His-Coa; WT-Coa (Staphylococcus aureus, UniProt Q2G1D3, P268A); assay: biochemical
T5 construct: gene SAOUHSC_00192
Excerpt: as §1

## O=c1cc(-c2ccc(O)cc2)oc2cc(O)c([C@@H]3O[C@H](CO)[C@@H](O)[C@H](O)[C@H]3O)c(O)c12 [isovitexin, apigenin-6-C-β-glucopyranoside]
[1]
  diameter of coagulation zone, % of control, at 128 μg/ml: 47.50%
[2]
  Kd: 10 µM
[3]
  Kd: 23 µM
[4]
  Kd: 12.4 µM
[5]
  Kd: 11.4 µM
[6]
  Kd: 19.4 µM
